# Data as given in a melting point compilation (Tetko et al.).
row,SMILES,melting point [°C]
1,Cn1cc[nH]c(=O)c1=O,207 to 209
2,O=C(O)c1cnc(-c2ccccc2Cl)s1,200 to 202
3,CC1(c2ccc(OC(F)(F)F)cc2)NC(=O)NC1=O (stereo not drawn),151 to 153
4,O=C(O)C1CC(c2cc(F)ccc2F)=NO1 (stereo not drawn),135 to 137
5,Cc1nn(Cc2ccc(Cl)cc2)c(O)c1C=O,179 to 181
6,O=C(O)c1cccnc1Oc1ccc(Br)cc1,177 to 179
7,NCc1cccnc1N1CCC(C(N)=O)CC1,129 to 131
8,OCC1Cc2cc(Br)ccc2O1 (stereo not drawn),63 to 65
9,NNC(=O)Nc1c(Cl)cc(Cl)cc1Cl,229 to 231
10,O=C(CBr)c1ccc(S(=O)(=O)N2CCCCC2)cc1,108 to 110
11,CC(C)c1nnc(S)n1C,139 to 141
12,CCCCNc1nnc(C)c2ccccc12,74 to 76
13,O=C1NC(=O)C2(CCS(=O)(=O)CC2)N1,327 to 329
14,CC(=O)NC1CNc2ccccc2C1 (stereo not drawn),124 to 126
15,CCOC(=O)C1CCCN1S(N)(=O)=O (stereo not drawn),123 to 125
16,Cc1ccc(C(C)(C)C(=O)O)cc1,76 to 78
17,CNS(=O)(=O)CC(=O)O,119 to 121
18,O=C(O)C1CSCN1C(=O)C1CCC1 (stereo not drawn),115 to 117
19,O=C(O)Cc1c[nH]c2cc(F)ccc12,159 to 161
20,O=c1[nH]c(=O)c2ccccc2s1,292 to 294
21,O=C1NC(=O)C2(CCC2)N1,222 to 224
22,O=C(NC1CCCC1)c1ccc(Cl)nn1,139 to 141
23,CCOC(=O)C(=O)c1cc(F)ccc1OC,49 to 51
24,NC(=O)Nc1ccc2c(c1)OCO2,178 to 182
25,CCN1CCCC1CN1CC(C(=O)O)CC1=O (stereo not drawn),166 to 168

row,SMILES,melting point [°C]
1,O=C(O)CCc1ccccc1OC(F)(F)F,49 to 51
2,CC1CN(S(=O)(=O)c2ccc(N)cc2)CC(C)O1 (stereo not drawn),199 to 203
3,FC(F)(F)c1ccc(-n2nnnc2CCl)cc1,56 to 58
4,CCOC(=O)c1ccccc1C#N,59 to 61
5,COC(=O)COc1ccc(C(C)=O)cc1,85 to 87
6,CCCCCNC1=NCC(c2ccccc2)S1 (stereo not drawn),66 to 68
7,CCS(=O)(=O)c1ccc(NC(=O)CCl)c(O)c1,207 to 209
8,Cc1ccc(-n2nc(C(=O)O)cc2C)cc1,149 to 151
9,O=S(=O)(c1ccc2c(c1)CCCC2)N1CCNCC1,110 to 112
10,Cc1ccc(S(=O)(=O)NCCCN(C)C)cc1C(=O)O,229 to 231
11,NC(=O)c1c(NC(=O)CCl)sc2c1CCC2,181 to 183
12,O=C(Nc1ccccc1)c1cccc(CCl)c1,123 to 125
13,O=C(O)COc1ccc2cc(Br)ccc2c1,224 to 226
14,O=C(O)c1cccnc1NC1CCCC1,222 to 224
15,CN(C)c1ccc(C#N)cn1,64 to 66
16,COc1cc(/C=C/C(=O)O)cc2c1OCCO2,182 to 185
17,O=C(O)CCSc1ccc(Cl)cc1,85 to 87
18,O=C(O)c1cc([N+](=O)[O-])cc(F)c1F,132 to 134
19,O=C(Nc1cccc(S(=O)(=O)C2CCCC2)c1)OCC(F)(F)F,104 to 106
20,O=C(O)CCC=Cc1ccccc1,86 to 88
21,CNC(=O)c1ccc(C#N)cc1,209 to 211
22,O=C(O)c1ccc(-c2ccco2)o1,147 to 149
23,CC(=O)CCc1ccc(OC(C)C(=O)O)cc1 (stereo not drawn),68 to 70
24,Cc1cnn(Cc2ccc(N)cc2)c1,78 to 80
25,Cc1cc([N+](=O)[O-])ccc1NC(=O)CCl,118 to 120

row,SMILES,melting point [°C]
1,Cc1ccc(C(=O)Nc2cccc(C=O)c2)cc1,130 to 132
2,Nc1ccc(Oc2ncccn2)cc1,132 to 134
3,CCN(CC)C(=O)c1ccc(C(=O)O)cc1,157 to 159
4,CC(C)N1CCc2c(sc(N)c2C#N)C1,167 to 169
5,Cc1ccc(N2C(=O)CC(C(=O)O)C2c2cccs2)cc1 (stereo not drawn),175 to 177
6,CCOC(=O)c1ccncc1N,173 to 175
7,C#CCNC(=O)c1cccnc1Cl,107 to 109
8,Cc1cc(C)c2nc(O)cc(C)c2c1,261 to 263
9,O=C(O)Cn1ccc(C(F)(F)F)n1,58 to 64
10,N#CCOc1ccc(/C=C/C(=O)O)cc1,214 to 216
11,CS(=O)(=O)c1ccc2c(c1)NC(=O)CO2,229 to 231
12,CCN(c1ccccc1)S(=O)(=O)c1cc(N)ccc1Cl,102 to 104
13,Cc1ccc([N+](=O)[O-])c(C)c1S(=O)(=O)Cl,62 to 64
14,COc1ccc2c(c1)NC(=O)CO2,157 to 159
15,Nc1cccc2c1CN(CCO)C2,109 to 111
16,O=C(O)c1cccc(F)c1I,148 to 150
17,NNC(=O)c1cc2ccccc2o1,171 to 173
18,NC(=O)Cn1cc([N+](=O)[O-])cn1,167 to 169
19,Cc1n[nH]c(N)c1C#N,160 to 162
20,Nc1ccncc1C(=O)C(F)(F)F,170 to 172
21,NC(=S)c1cc([N+](=O)[O-])ccc1N,171 to 173
22,COC(=O)c1cc2c(nc1N)CCCC2,126 to 128
23,O=C(O)C1CC12CCCc1ccccc12 (stereo not drawn),161 to 163
